Laboratory results taken from patent publication US12121536B2, “Strontium based compositions and formulations for pain, pruritus, and inflammation” (Galleon Labs LLC, priority 2015, dated 2024).

Key:
TCN [1] = conditions: strontium substitutes for calcium; cited from earlier work
IL-17 = target: T1, IL-17 (Homo sapiens, UniProt Q16552); assay: Preliminary investigations in psoriasis: IL-17
T1 sequence (Q16552 24-155): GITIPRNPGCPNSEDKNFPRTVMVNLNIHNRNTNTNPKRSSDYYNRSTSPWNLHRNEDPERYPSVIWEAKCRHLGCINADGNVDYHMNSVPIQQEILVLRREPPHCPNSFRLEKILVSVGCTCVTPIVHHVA
Description: (§1) Preliminary investigations indicate that strontium can break up the inflammatory/keratinocyte cycle of psoriasis, specifically by blocking the IL-17 and TNF-alpha. By targeting and blocking the two main pathways that activated dendritic cells use to trigger a psoriatic episode, strontium has immense potential as a therapeutic for psoriasis.

TLR-4 = TLR-4 (Homo sapiens, UniProt O00206); assay: Preliminary data in atopic dermatitis: TLR-4
[2] = Topical application to skin for pain, itch, irritation; format: in vivo; conditions: simple solutions of strontium and water, no penetration enhancer
Description: Without wishing to be bound by any one theory, it is believed that opening ion channels in the presence of strontium, allows greater levels of strontium to enter the nociceptor and shut down or decrease its activity. This is due to (1) strontium having a higher affinity than calcium for flowing into the ion channels and (2) the excessive amount of strontium ions present as compared to the physiological levels of calcium present. Furthermore, cysteine based antioxidants and strontium target different mechanisms to block nociception. The combination results in a synergistic affect
Most skin products are “pH balanced” to help maintain a healthy skin pH. […] While not wishing to be bound by any one theory, it is believed that the application of a low pH formulation on the skin activates acid sensitive ion channels such as ASIC and TRPV1 resulting in the opening of ion channels on the nociceptor. The opening of the ion channels in the presence of strontium allows greater levels of strontium to enter the nociceptor and shut down or decrease it activity. This is due to (1) strontium having a higher affinity than calcium for flowing into the ion channels and (2) the excessive amount of strontium ions present as compared to the physiological levels of calcium present. […]

nociceptor = conditions: cited from earlier work
TNF-alpha = TNF-alpha (Homo sapiens, UniProt P01375); assay: Preliminary investigations in psoriasis: TNF-alpha
Description: as §1

MMP = assay: Preliminary data in atopic dermatitis: MMP
HSV1 = assay: Preliminary investigations: symptoms of HSV1; format: in vivo
Description: Without wishing to be bound by any one theory, it is believed that strontium's ability to block NF-Kappa B contributes to minimizing the symptoms associated with an active infection. As mentioned above, HSV 1 and 2 require the activation of NF-Kappa B for de novo virus synthesis. By blocking NF-Kappa B, strontium is essentially stopping the infection at an early stage.

[3] = Preliminary investigations: pain of post herpetic neuralgia; format: in vivo
TCN [4] = assay: Burning pain from acidic chemical peel (70% glycolic acid) mixed with strontium; format: in vivo; conditions: strontium mixed with 70% glycolic acid, pH 0.6
Method: Nociceptors also have a CaSR that inhibits nociceptor activation when the extracellular concentration of calcium is raised above normal, or if a similar concentration of strontium is administered. […] When strontium is mixed with the acid, burning pain and stinging is suppressed by 80% or more so that any remaining sensory irritation is not bothersome.

[5] = Clinical observation: topical application, itching and erythema (flushing); format: in vivo, human; conditions: for itching and erythema of skin: 1% in water solution, 4×2 inch patch on inside forearm, one subject
Method: BHB acts on the same pathway that causes flushing in individuals who take high doses of niacin. A topical formulation containing BHB was evaluated to see if it induced itching and erythema. The BHB formulation was compared to a topical niacin formulation.
A 1% BHB in water solution was made and a 1% niacin in water solution was made. Unknown to the subject, the BHB formula was applied in a 4×2 inch patch on the inside left forearm and the niacin formula was applied in a 4×2 in patch on the inside right forearm. The skin was evaluated over a period of time.

[6] = emulsions with more than about 6-7% salt (about 2% elemental strontium)

Chain of TNF-alpha (P01375 77-233 limits assumed, species assumed): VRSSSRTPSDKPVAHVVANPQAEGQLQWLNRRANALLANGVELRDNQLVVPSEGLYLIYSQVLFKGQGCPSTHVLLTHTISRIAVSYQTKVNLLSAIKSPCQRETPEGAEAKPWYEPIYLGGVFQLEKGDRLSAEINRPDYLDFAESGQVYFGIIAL
Chain of TLR-4 (O00206 24-839, species assumed): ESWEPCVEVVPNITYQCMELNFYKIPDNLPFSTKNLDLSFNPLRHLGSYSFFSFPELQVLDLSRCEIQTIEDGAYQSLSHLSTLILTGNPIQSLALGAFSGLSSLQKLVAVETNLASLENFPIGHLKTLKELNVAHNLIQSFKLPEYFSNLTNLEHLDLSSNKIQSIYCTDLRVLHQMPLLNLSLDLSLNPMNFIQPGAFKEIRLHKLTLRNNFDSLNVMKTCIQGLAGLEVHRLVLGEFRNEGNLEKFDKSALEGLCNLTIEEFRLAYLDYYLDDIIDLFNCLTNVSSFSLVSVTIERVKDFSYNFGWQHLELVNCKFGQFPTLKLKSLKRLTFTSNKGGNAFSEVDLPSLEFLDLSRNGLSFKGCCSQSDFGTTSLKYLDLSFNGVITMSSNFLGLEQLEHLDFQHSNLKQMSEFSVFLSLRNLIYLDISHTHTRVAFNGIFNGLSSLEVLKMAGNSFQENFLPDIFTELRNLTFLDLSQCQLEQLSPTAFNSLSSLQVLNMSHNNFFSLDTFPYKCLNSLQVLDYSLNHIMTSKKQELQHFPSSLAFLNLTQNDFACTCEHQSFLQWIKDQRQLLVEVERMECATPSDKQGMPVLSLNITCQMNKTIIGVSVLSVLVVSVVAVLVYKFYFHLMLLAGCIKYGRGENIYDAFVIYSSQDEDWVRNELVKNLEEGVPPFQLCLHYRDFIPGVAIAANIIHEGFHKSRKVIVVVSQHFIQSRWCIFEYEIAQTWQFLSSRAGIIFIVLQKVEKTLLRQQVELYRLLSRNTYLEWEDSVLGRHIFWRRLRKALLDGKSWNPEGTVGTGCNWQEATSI

## [Sr+2] [strontium]
TCN [1]
  reduction of amplitude of synchronous neurotransmitter release: more than 90%
IL-17
  blocking of IL-17: blocking
TLR-4
  blocking of TLR-4 activity: can block
[2]
  reducing pain and irritation: can be effective
nociceptor
  ability to induce CICR relative to calcium: over a hundred-fold less active
nociceptor; not told
  concentration reached in the ER, greater than calcium: more than 150%
TNF-alpha
  blocking of TNF-alpha: blocking
MMP
  blocking of MMP activity: can block
HSV1
  pain, itch, and rash/blister formation associated with HSV1: can reduce and or eliminate
[3]
  pain associated with PHN: can reduce or block
TCN [4]
  suppression of burning pain and stinging: ≥ 80%

## O=C(O)c1cccnc1 [niacin, nicotinic acid, reference compound]
[5]
  itching and erythema of skin: began to redden and itch

## CC(O)CC(=O)O (stereo not drawn) [BHB, beta-hydroxybutyric acid]
[5]
  itching and erythema of skin: did not redden or become itchy
[5]; compared with niacin
  flush/blush response: does not activate

## O=[N+]([O-])[O-].O=[N+]([O-])[O-].[Sr+2] [strontium nitrate]
[6]
  emulsion stability: tend to be unstable and separate

## O.O.O.O.O.O.[Cl-].[Cl-].[Sr+2] [strontium chloride hexahydrate]
[6]
  emulsion stability: tend to be unstable and separate
